Holding throughout (assay): DTP human tumour cell line panel, 48 h
In test [1] the test system is SNB-75 CNS.
The test system of test [2] is UACC-257 melanoma.
Test [3] relates to ACHN renal.
For test [4], the system named is KM20L2 colon.
Test [5] deals with NCI-H23 lung.
Test [6] has as its system SNB-78 CNS.
The test system of test [7] is T-47D breast.
In test [8] the test system is PC-3 prostate.
For test [9], the system named is HL-60(TB) leukemia.
In test [10] the test system is NCI/ADR-RES ovarian.

The structures appear in SMILES notation. “And” between values parts separate entries of the source, which are not always exact repeats. Equal entries are not always repeated.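 Step 1: Grow cells in 96-well plates. Step 2: Expose to compound for 48 hours at 5 concentrations. Step 3: Interpolate endpoints linearly; if unreached, use highest concentration. The concentration for 50% growth inhibition is given as GI50. At the TGI there is no net growth.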

As usually defined, the TGI is the concentration giving total growth inhibition. Low values mean greater sensitivity of the cells, high ones lower sensitivity of the cells. For `COc1ccc2c(c1OC)C(C=C(c1ccccc1)c1ccccc1)CN(C)C2` (stereo not drawn), the TGI was greater than 100 µM in test [1]; 54.8 µM in test [2]; greater than 100 µM in [3]; 35.5 µM in test [4]; 63.1 µM in test [5]; greater than 100 µM in test [6].

`COc1cc(=O)oc(/C=C/C=C/C=C/C(C)=C\C2(C)OC(C)C(C)(O)C2O)c1C` (stereo not drawn): the TGI in [7], in test [1], in test [2], in [3], in test [5] and in test [8] was greater than 100 µM throughout. Besides, the TGI in test [9] and in test [10] was greater than 100 µM throughout.

Usually GI50 stands for the concentration at which growth is held to half of that of the control. `COC(=O)CCCNC(=O)C(=O)c1c(O)c(O)c(C(C)C)c2cc(C)c(-c3c(C)cc4c(C(C)C)c(O)c(O)c(C(=O)C(=O)NCCCC(=O)OC)c4c3O)c(O)c12`: the GI50 in [7] was 558 nM; in test [1], 1430 nM; in [2], 1770 nM; in test [3], 210 nM; in test [5], 363 nM; in test [8], 258 nM. Besides, the GI50 was 931 nM in test [9] and 834 nM in test [10]. Further, the TGI was determined as 3.06 µM in [7]; 19.1 µM in test [1]; 6.19 µM in test [2]; 4.09 µM in test [3]; 6.03 µM in test [5]; 8.65 µM in [8]. Further, the TGI stood at 6.76 µM in [9] and 16.6 µM in test [10].

Take `Cc1cc(C)c(O)c(CNCCCNCc2cc(C)cc(C)c2O)c1`: the GI50 in test [7] is 1730 nM; in test [1] it was 1390 nM; in test [2], 2140 nM; in test [3], 3550 nM; in [5] it was 7460 nM; in test [8], 6690 nM. Also, the GI50 in test [9] is 2330 nM; in test [10] it was 2170 nM. Further, the TGI in test [7] turned out to be 4.29 µM; in [1], 2.78 µM; in test [2], 4.08 µM; in test [3], 10.8 µM; in [5] it was 21.2 µM; in [8], 19.8 µM. In addition, the TGI in test [9] is 4.75 µM; in test [10], 5.75 µM.

`O=C1c2ccccc2-c2c1c1ccc([N+](=O)[O-])cc1c(=O)n2CCCn1ccnc1`: the total growth inhibition concentration (TGI) in [7] is greater than 33.3 µM; in [1], 0.862 µM; in test [2], 1.83 µM; in test [3] it was 0.704 µM; in [5] it was 0.292 µM; in test [8], 14.3 µM. In addition, the TGI in test [9] came to 3.84 µM; in test [10], 0.366 µM. Moreover, the GI50 is 379 nM in test [2]; 119 nM in test [5]; 832 nM in [8]; 1090 nM in test [9]; 46.5 nM in [10].

With `Clc1ccc(COC(Cn2ccnc2)c2ccc(Cl)cc2Cl)c(Cl)c1` (stereo not drawn), the GI50 in test [7] is 2000 nM; in test [2] it was 5080 nM; in test [3] it was 4510 nM; in test [5], 3030 nM; in test [8] it was 3070 nM; in test [9], 2340 nM. The GI50 in test [10] is 3060 nM. Besides, the TGI in [7] is 8.33 µM and 24.6 µM and 21.6 µM; in test [1] it was 12.6 µM and 28.8 µM and 16.2 µM; in test [2] it was 17.7 µM and 30.3 µM and 23.2 µM; in test [3], 16.1 µM and 30.1 µM and 24.6 µM; in [5], 14.6 µM and 25.8 µM and 22.4 µM; in [8], 13.8 µM and 20.6 µM and 20.3 µM. For the same compound, the TGI is 6.21 µM and 17 µM and 7.02 µM in test [9]; 13.3 µM and 25.2 µM and 16 µM in test [10].

For the compound `O=C1CCC(N2C(=O)c3cccc(NCCOCCOCCNC(=O)c4cc5c(o4)C(=O)c4ccccc4C5=O)c3C2=O)C(=O)N1` (stereo not drawn), the GI50 in test [7] was 2460 nM; in [1], 2470 nM; in [2], 1480 nM; in test [3], 2300 nM; in test [5] it was 352 nM; in test [8], 2420 nM. For the same compound, the values for the GI50 in test [9] and in test [10] were 2100 nM and 17100 nM, respectively. Moreover, the TGI in test [7] came to 8.05 µM; in test [1], 4.16 µM; in test [2] it was 2.85 µM; in test [3] it was 6.62 µM; in [5], 1.71 µM; in [8] it was 15.1 µM. Also, the TGI stood at 6.82 µM in test [9] and 62.1 µM in [10].

Consider `CCCc1n(Cc2ccc3ccccc3n2)cc[n+]1Cc1ccc2ccccc2c1`, for which the GI50 in test [7] was 307 nM; in test [1], 410 nM; in [2], 347 nM; in test [3], 4080 nM; in [5], 479 nM; in test [8], 487 nM. Besides, the GI50 in [9] is 312 nM; in test [10] it was 32800 nM. Further, the TGI in test [7] was 5.55 µM; in test [1], 3.47 µM; in test [2], 1.72 µM; in [3], 15.6 µM; in [5] it was 10.6 µM; in [8] it was 4.96 µM. For the same compound, the TGI in test [9] is 0.933 µM; in test [10], greater than 100 µM.

Take `Cc1ccc(-c2cc(=O)c3cc(C)c(C)c(C(=O)O)c3o2)cc1[N+](=O)[O-]`: the TGI in test [1], in test [2], in test [3], in test [4], in test [5] and in test [6] was greater than 100 µM in each case.

In the case of `CCN(CC)c1ccc(/C=N/NC(=O)c2ccccc2Nc2ccnc(C(F)(F)F)c2)c(O)c1`, the GI50 in test [7] is 471 nM; in [1], 410 nM; in [2], 303 nM; in [3] it was 83.4 nM; in test [5], 528 nM; in [8], 997 nM. Moreover, the figures for the GI50 in test [9] and in [10] were 162 nM and 273 nM, respectively. In addition, the TGI in [7] is greater than 100 µM; in test [1], greater than 100 µM; in test [2] it was 1.72 µM; in test [3] it was greater than 24.6 µM; in [5] it was greater than 100 µM; in test [8], greater than 100 µM. The concentration for total growth inhibition (TGI) is 0.518 µM in test [9] and 14 µM in test [10].

Values taken from PubChem BioAssay (NCI).
